What was measured:
[1] = Acute toxicity; conditions: mouse, in vivo, ip; ICR male mice weighing 18-23 g, intraperitoneally administered for one week; read-out: 50% lethal toxicity (LD50)
Experimental: ICR male mice weighing 18-23 g were intraperitoneally administered with the test compounds for one week, and the 50% lethal toxicity (LD50 : mg/kg) was measured by a conventional method.

[2] = system: L-1210 leukemia; test: Anti-tumor activity against L-1210 leukemia in mice; format: in vivo, mouse; conditions: intraperitoneal, 5 days, BDF1 female mice
Experimental: Anti-tumor activity against L-1210 leukemia in mice
BDF1 female mice weighing 18-23 g (one group: 3 mice) were used. The mice were intraperitoneally inoculated with mouse L-1210 leukemia cells (1×10^5). […] As a control, 50 mM phosphate buffer (pH 7.4) without a test compound was intraperitoneally administered likewise. Based on the data, the life-prolongation ratio of the test compound was calculated.

SMILES	LD50 [1]	Life-prolongation ratio ([2]; 1.0 mg/kg/day)	Life-prolongation ratio ([2]; 4.0 mg/kg/day)	Life-prolongation ratio ([2]; 16.0 mg/kg/day)
Nc1nc(O)c2c(n1)n([C@@H]1O[C@H](CO)[C@@H](O)[C@H]1O)c[n+]2[O-] [Compound A, 7-hydroxyguanine riboside]	192 mg/kg	128.9	148.2	148.2
Nc1nc(O)c2c(n1)n([C@H]1C[C@H](O)[C@@H](CO)O1)c[n+]2[O-] [Compound B, 7-hydroxyguanine deoxyriboside]	172 mg/kg	120.5	160.2	168.7

Source: US4786723A, “7-hydroxyguanine compounds, process for preparing said compounds, and anti-tumor agent containing the same” (Kanegafuchi Chemical Industry Co., Ltd., priority 1985, dated 1988)
